Assay results: ChEMBL document CHEMBL1201862, “PubChem BioAssay data set” (2004)
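Five compound concentrations were applied to cells in 96-well plates for 48 hours; endpoints were derived by simple linear interpolation of the resulting dose-response curve. GI50: concentration for 50% inhibition of growth.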 Active and inactive are the calls of the source. Rule as the data show it: active = GI50 up to about 1.1 µM and inactive = higher.

Assays:
Experiment in all cases: growth of human tumour cells (NCI), 48 h
CCRF-CEM = tested on: CCRF-CEM
NCI-H226 = tested on: NCI-H226
UO-31 = tested on: UO-31
MCF7 = tested on: MCF7
SF-539 = tested on: SF-539
NCI-H460 = tested on: NCI-H460
Hs-578T = tested on: Hs-578T
HOP-92 = tested on: HOP-92
HOP-62 = tested on: HOP-62
COLO 205 = tested on: COLO 205
OVCAR-4 = tested on: OVCAR-4
KM12 = tested on: KM12
786-0 = tested on: 786-0
BT-549 = tested on: BT-549
MDA-N = tested on: MDA-N
NCI-H522 = tested on: NCI-H522
ACHN = tested on: ACHN
MDA-MB-435 = tested on: MDA-MB-435
K562 = tested on: K562
RPMI-8226 = tested on: RPMI-8226
MDA-MB-231 = tested on: MDA-MB-231
MOLT-4 = tested on: MOLT-4
SNB-19 = tested on: SNB-19
OVCAR-8 = tested on: OVCAR-8
UACC-62 = tested on: UACC-62
SF-268 = tested on: SF-268
NCI-H23 = tested on: NCI-H23
M14 = tested on: M14
RXF 393 = tested on: RXF 393
SK-MEL-2 = tested on: SK-MEL-2
SW-620 = tested on: SW-620
SNB-75 = tested on: SNB-75
CAKI-1 = tested on: CAKI-1
IGROV-1 = tested on: IGROV-1
A498 = tested on: A498
HT-29 = tested on: HT-29
A549 = tested on: A549
EKVX = tested on: EKVX
TK-10 = tested on: TK-10
SR = tested on: SR
OVCAR-3 = tested on: OVCAR-3
PC-3 = tested on: PC-3
HCT-15 = tested on: HCT-15
SN12C = tested on: SN12C
SK-MEL-28 = tested on: SK-MEL-28
HCT-116 = tested on: HCT-116
HL-60 = tested on: HL-60
DU-145 = tested on: DU-145
SF-295 = tested on: SF-295
U-251 = tested on: U-251
UACC-257 = tested on: UACC-257
T47D = tested on: T47D
LOX IMVI = tested on: LOX IMVI
NCI/ADR-RES = tested on: NCI/ADR-RES
SK-MEL-5 = tested on: SK-MEL-5
OVCAR-5 = tested on: OVCAR-5
HCC 2998 = tested on: HCC 2998
SK-OV-3 = tested on: SK-OV-3
Malme-3M = tested on: Malme-3M

SMILES: CC1=C(C(=O)NNC(=O)C(N)=O)CC(C(=O)NNC(=O)C(N)=O)=C(C)N1
- GI50 (CCRF-CEM): > 100 µM (inactive)
- GI50 (NCI-H226): > 100 µM (inactive)
- GI50 (UO-31): > 100 µM (inactive)
- GI50 (MCF7): > 100 µM (inactive)
- GI50 (SF-539): > 100 µM (inactive)
- GI50 (NCI-H460): > 100 µM (inactive)
- GI50 (Hs-578T): > 100 µM (inactive)
- GI50 (HOP-92): > 100 µM (inactive)
- GI50 (HOP-62): > 100 µM (inactive)
- GI50 (COLO 205): > 100 µM (inactive)
- GI50 (OVCAR-4): > 100 µM (inactive)
- GI50 (KM12): > 100 µM (inactive)
- GI50 (786-0): > 100 µM (inactive)
- GI50 (BT-549): > 100 µM (inactive)
- GI50 (MDA-N): > 100 µM (inactive)
- GI50 (NCI-H522): > 100 µM (inactive)
- GI50 (ACHN): > 100 µM (inactive)
- GI50 (MDA-MB-435): > 100 µM (inactive)
- GI50 (K562): > 100 µM (inactive)
- GI50 (RPMI-8226): > 100 µM (inactive)
- GI50 (MDA-MB-231): > 100 µM (inactive)
- GI50 (MOLT-4): > 100 µM (inactive)
- GI50 (SNB-19): > 100 µM (inactive)
- GI50 (OVCAR-8): > 100 µM (inactive)
- GI50 (UACC-62): > 100 µM (inactive)
- GI50 (SF-268): > 100 µM (inactive)
- GI50 (NCI-H23): > 100 µM (inactive)
- GI50 (M14): > 100 µM (inactive)
- GI50 (RXF 393): > 100 µM (inactive)
- GI50 (SK-MEL-2): > 100 µM (inactive)
- GI50 (SW-620): > 100 µM (inactive)
- GI50 (SNB-75): > 100 µM (inactive)
- GI50 (CAKI-1): > 100 µM (inactive)
- GI50 (IGROV-1): > 100 µM (inactive)
- GI50 (A498): > 100 µM (inactive)
- GI50 (HT-29): > 100 µM (inactive)
- GI50 (A549): > 100 µM (inactive)
- GI50 (EKVX): > 100 µM (inactive)
- GI50 (TK-10): > 100 µM (inactive)
- GI50 (SR): > 100 µM (inactive)
- GI50 (OVCAR-3): > 100 µM (inactive)
- GI50 (PC-3): > 100 µM (inactive)
- GI50 (HCT-15): > 100 µM
- GI50 (SN12C): > 100 µM (inactive)
- GI50 (SK-MEL-28): > 100 µM (inactive)
- GI50 (HCT-116): > 100 µM (inactive)
- GI50 (HL-60): 47.4 µM (inactive)
- GI50 (DU-145): > 100 µM (inactive)
- GI50 (SF-295): > 100 µM (inactive)
- GI50 (U-251): > 100 µM (inactive)
- GI50 (UACC-257): > 100 µM (inactive)
- GI50 (T47D): > 100 µM (inactive)
- GI50 (LOX IMVI): > 100 µM (inactive)
- GI50 (NCI/ADR-RES): > 100 µM (inactive)
- GI50 (SK-MEL-5): > 100 µM (inactive)
- GI50 (OVCAR-5): > 100 µM (inactive)
- GI50 (HCC 2998): > 100 µM (inactive)
- GI50 (SK-OV-3): > 100 µM (inactive)

SMILES: NS(=O)(=O)c1ccc(/N=N/c2cccnc2O)cc1
- GI50 (CCRF-CEM): 20.7 µM (inactive)
- GI50 (NCI-H226): > 100 µM (inactive)
- GI50 (UO-31): > 100 µM (inactive)
- GI50 (MCF7): > 100 µM (inactive)
- GI50 (SF-539): > 100 µM (inactive)
- GI50 (NCI-H460): > 100 µM (inactive)
- GI50 (Hs-578T): > 100 µM (inactive)
- GI50 (HOP-92): > 100 µM (inactive)
- GI50 (HOP-62): > 100 µM (inactive)
- GI50 (COLO 205): > 100 µM (inactive)
- GI50 (OVCAR-4): > 100 µM (inactive)
- GI50 (KM12): > 100 µM (inactive)
- GI50 (Malme-3M): > 100 µM (inactive)
- GI50 (786-0): > 100 µM (inactive)
- GI50 (BT-549): > 100 µM (inactive)
- GI50 (MDA-N): > 100 µM (inactive)
- GI50 (NCI-H522): > 100 µM (inactive)
- GI50 (ACHN): > 100 µM (inactive)
- GI50 (MDA-MB-435): > 100 µM (inactive)
- GI50 (K562): > 100 µM (inactive)
- GI50 (RPMI-8226): > 100 µM (inactive)
- GI50 (MDA-MB-231): > 100 µM (inactive)
- GI50 (MOLT-4): > 100 µM (inactive)
- GI50 (SNB-19): > 100 µM (inactive)
- GI50 (OVCAR-8): > 100 µM (inactive)
- GI50 (UACC-62): > 100 µM (inactive)
- GI50 (SF-268): > 100 µM (inactive)
- GI50 (NCI-H23): > 100 µM (inactive)
- GI50 (M14): > 100 µM (inactive)
- GI50 (RXF 393): > 100 µM (inactive)
- GI50 (SK-MEL-2): > 100 µM (inactive)
- GI50 (SW-620): > 100 µM (inactive)
- GI50 (SNB-75): > 100 µM (inactive)
- GI50 (CAKI-1): > 100 µM (inactive)
- GI50 (IGROV-1): > 100 µM (inactive)
- GI50 (A498): > 100 µM (inactive)
- GI50 (HT-29): > 100 µM (inactive)
- GI50 (A549): > 100 µM (inactive)
- GI50 (EKVX): > 100 µM (inactive)
- GI50 (TK-10): > 100 µM (inactive)
- GI50 (SR): > 100 µM (inactive)
- GI50 (OVCAR-3): > 100 µM (inactive)
- GI50 (PC-3): > 100 µM (inactive)
- GI50 (HCT-15): > 100 µM
- GI50 (SN12C): > 100 µM (inactive)
- GI50 (SK-MEL-28): > 100 µM (inactive)
- GI50 (HCT-116): > 100 µM (inactive)
- GI50 (HL-60): > 100 µM (inactive)
- GI50 (DU-145): > 100 µM (inactive)
- GI50 (SF-295): > 100 µM (inactive)
- GI50 (U-251): > 100 µM (inactive)
- GI50 (UACC-257): > 100 µM (inactive)
- GI50 (T47D): > 100 µM (inactive)
- GI50 (LOX IMVI): > 100 µM (inactive)
- GI50 (NCI/ADR-RES): > 100 µM (inactive)
- GI50 (SK-MEL-5): > 100 µM (inactive)
- GI50 (OVCAR-5): > 100 µM (inactive)
- GI50 (SK-OV-3): > 100 µM (inactive)
